# Legend:
# SARS-CoV2 = assay: Virucidal activity / neutralising viral toxicity in Vero-E6 cell assay in the dark (Cagno et al 2020 data); format: cell-based
# [1] = set-up: species or system rats; conditions: rat, in vivo, po, 10 mg/kg
# Procedure: A further whole body autoradiography study rats compared the distribution of LMT-associated radioactivity in brain, lung and heart following oral dosing at 10 mg/kg. […] The ratio specific for LMT in lung is therefore unknown. It is possible to relate plasma levels determined in a large clinical population (Schelter et al., 2019) to expected tissue levels of LMT at steady state across a wide dosing range of 8-250 mg/day. However, this depends critically on the tissue:plasma ratio for specifically affected tissues such a lung.
# [2] = Oxygen saturation and metHb in clinical trial patients after LMT dosing; format: in vivo, human
# Procedure: The present inventors have used data available for patients participating in clinical trials to determine whether LMT enhances oxygen saturation of blood. Data were available for 18 subjects with oxygen saturation <94% at baseline (lower limit of normal range is 95%). Oxygen saturation levels were compared pre-dose and after 4 hrs in the clinic following administration of a single doses of LMT at 4 mg and ˜100mg (mean of 75, 100, 125 mg; FIG. 8).
# In order to understand this effect further the inventors investigated whether the low oxygen saturation in these patients is due to elevation in metHb levels. There was no difference in metHb levels at baseline between subjects with low SpO2 and those with SpO2 levels in the normal range.
# [3] = Clinical safety / cardiotoxicity of LMTM; format: in vivo, human
# Procedure: Therefore, doses up to 250 mg/day could be given safely for treatment of COVID-19 patients.
# [4] = AD patients; cited from earlier work
# mitochondrial function = conditions: in vitro and in vivo; cited from earlier work
# SARS-CoV-2 = conditions: Vero cells, 48 hrs; read-out: IC50, SARS-CoV-2 antiviral activity (viral replication); cited from earlier work
compound,measurement,setting,value
"CN(C)c1ccc2c(c1)Sc1cc(N(C)C)ccc1N2 [LMT, hydromethylthionine]",potency as SARS-CoV-2 antiviral relative to hydroxychloroquine and remdesivir,SARS-CoV2; assuming comparability of the assays,approximately 23 fold
same,"ratio of heart and lung to brain (LMT-associated radioactivity, total MT)",[1],2:1
"CN(C)c1ccc2c(c1)Sc1cc(N(C)C)ccc1N2.CS(=O)(=O)O.CS(=O)(=O)O [LMTM, N,N,N′,N′-tetramethyl-10H-phenothiazine-3,7-diaminium bis(hydromethanesulfonate)]",metHb levels,"[2]; higher doses, over a period of time",systematically increases metHb levels
same,oxygen saturation of blood,"[2]; subjects with oxygen saturation <94% at baseline, 4 hours after single dose of LMT at 4 mg and ~100 mg",significantly increased oxygen saturation
same,safety across doses,"[3]; 8-250 mg/day, three Phase 3 trials in over 2,000 patients with dementia",well established
same,cardiotoxicity,"[3]; human, in vivo",does not have the cardiotoxicity
same,minimum effective dose (anti-dementia effects),[4],8 mg/day
same,optimally effective dose (anti-dementia effects),[4],16 mg/day
same,mitochondrial function,mitochondrial function,enhance mitochondrial function
CCN(CCO)CCCC(C)Nc1ccnc2cc(Cl)ccc12 (centres unmarked) [hydroxychloroquine],IC50,SARS-CoV-2,720 nM
methylthionine [MT moiety],IC50,"SARS-CoV2; Vero cell assay, 20 hrs, calculated from Cagno et al. data",32 nM
